From patent US20250136606A1, “MODULATORS OF TRPML, THEIR COMPOSITIONS AND METHODS OF USE” (Caraway Therapeutics, Inc., priority 2021, published 2025) come the findings set out here.

Each structure is given as a SMILES string. Like-named read-outs stand apart in the source and are kept apart here. Bounds are passed on as bounds.

Holding throughout (format): cell-based
Test [1] addresses TRPML1 (Homo sapiens, UniProt Q9GZU1). The test is described as follows: Fluorescent TRPML1 assay (Fluo4-AM calcium fluorescence in doxycycline-induced HEK-293 Trex cells). In a few lines: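 HEK-293 Trex cells stably carrying human TRPML1 (surface-trafficking mutant) were induced overnight with 0.5 ug/mL doxycycline, loaded with 1 micromolar Fluo4-AM, and suspended in Ringer's with 10 mM calcium. Compounds at 20 micromolar to 6 nanomolar final, half-log steps, triplicate; fluorescence 480/540 nm gave percent activity versus controls and EC50 by non-linear regression.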

Test [2] deals with T1, TRPML2 (Homo sapiens, UniProt Q8IZK6).
T1 construct: expressed in transfected cells
T1 sequence (Q8IZK6 1-566): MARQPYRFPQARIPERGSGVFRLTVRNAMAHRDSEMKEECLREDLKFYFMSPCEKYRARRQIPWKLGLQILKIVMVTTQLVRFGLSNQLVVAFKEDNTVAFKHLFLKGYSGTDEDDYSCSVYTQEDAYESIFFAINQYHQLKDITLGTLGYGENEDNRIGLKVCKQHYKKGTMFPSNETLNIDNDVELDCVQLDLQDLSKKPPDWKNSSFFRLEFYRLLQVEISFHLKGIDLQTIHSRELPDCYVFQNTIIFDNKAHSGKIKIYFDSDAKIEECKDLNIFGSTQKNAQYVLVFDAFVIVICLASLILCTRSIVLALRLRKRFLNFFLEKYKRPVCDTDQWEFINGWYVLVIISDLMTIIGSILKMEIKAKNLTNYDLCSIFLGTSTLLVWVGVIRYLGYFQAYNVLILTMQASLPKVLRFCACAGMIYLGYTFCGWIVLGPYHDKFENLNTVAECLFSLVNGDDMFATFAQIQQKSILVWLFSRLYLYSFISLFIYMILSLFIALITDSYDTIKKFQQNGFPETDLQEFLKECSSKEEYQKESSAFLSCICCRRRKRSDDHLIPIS
Kind of test: Fluorescent TRPML2 assay (performed as for TRPML1, substituting the TRPML2 subtype). In a few lines: (§1)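 Calcium-influx readout: Fluo4 fluorescence at 480/540 nm, normalised to positive and negative controls per plate, EC50 fitted by non-linear regression. Cells were HEK-293 Trex stable lines, channel expression induced overnight with 0.5 ug/mL doxycycline; tested at 20 micromolar down to 6 nanomolar final, half-log steps, triplicate.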

Test [3] deals with T2, TRPML3 (Homo sapiens, UniProt Q8TDD5).
T2 construct: expressed in transfected cells
T2 sequence (Q8TDD5 1-553): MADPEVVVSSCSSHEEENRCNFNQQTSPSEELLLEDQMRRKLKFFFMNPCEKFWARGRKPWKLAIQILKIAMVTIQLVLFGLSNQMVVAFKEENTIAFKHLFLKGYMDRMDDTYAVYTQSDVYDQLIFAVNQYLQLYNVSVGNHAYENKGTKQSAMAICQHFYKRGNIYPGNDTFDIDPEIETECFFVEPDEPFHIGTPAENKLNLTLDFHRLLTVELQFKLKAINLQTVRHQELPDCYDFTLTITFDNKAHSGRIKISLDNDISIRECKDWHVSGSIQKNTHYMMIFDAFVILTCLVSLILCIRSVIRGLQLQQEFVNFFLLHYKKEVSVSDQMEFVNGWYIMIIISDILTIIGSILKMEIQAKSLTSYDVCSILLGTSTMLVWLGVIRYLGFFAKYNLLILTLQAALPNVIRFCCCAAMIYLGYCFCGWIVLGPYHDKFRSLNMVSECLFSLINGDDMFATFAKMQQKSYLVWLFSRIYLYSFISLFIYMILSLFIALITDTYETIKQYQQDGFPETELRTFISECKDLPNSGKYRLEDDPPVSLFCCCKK
Kind of test: Fluorescent TRPML3 assay (performed as for TRPML1, substituting the TRPML3 subtype). In a few lines: as §1

Sequence of TRPML1 (Q9GZU1 whole entry L15A/L16A/L577A/L578A, form open): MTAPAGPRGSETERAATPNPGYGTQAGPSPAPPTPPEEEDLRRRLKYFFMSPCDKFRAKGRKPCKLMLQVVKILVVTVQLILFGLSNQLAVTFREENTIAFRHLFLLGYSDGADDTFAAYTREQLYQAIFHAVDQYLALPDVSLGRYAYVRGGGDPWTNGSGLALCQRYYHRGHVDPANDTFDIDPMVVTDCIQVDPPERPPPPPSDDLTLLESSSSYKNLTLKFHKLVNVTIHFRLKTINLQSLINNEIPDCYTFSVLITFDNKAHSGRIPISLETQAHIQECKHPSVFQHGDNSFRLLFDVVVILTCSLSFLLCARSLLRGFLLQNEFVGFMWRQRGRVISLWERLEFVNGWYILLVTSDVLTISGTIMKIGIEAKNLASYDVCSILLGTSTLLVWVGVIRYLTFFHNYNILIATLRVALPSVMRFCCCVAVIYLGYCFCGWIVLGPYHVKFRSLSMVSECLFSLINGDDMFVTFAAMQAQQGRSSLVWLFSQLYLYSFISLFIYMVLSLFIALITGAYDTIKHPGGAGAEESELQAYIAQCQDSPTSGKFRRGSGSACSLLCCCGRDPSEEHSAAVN

The EC50 is the midpoint of the concentration-response curve. Consider `C[C@H]1CN(C(=O)OC(C)(C)C)CCN1c1ncnc2c1c(N1CCOCC1)cn2C1CCCCC1` [Compound 344, tert-butyl (S)-4-(7-cyclohexyl-5-morpholino-7H-pyrrolo[2,3-d]pyrimidin-4-yl)-3-methylpiperazine-1-carboxylate], for which the figures for the EC50 in test [1] (fluorescent calcium assay), in test [2] (fluorescent calcium assay) and in test [3] (fluorescent calcium assay) were 100 to 500 nM, over 2000 nM and 100 to 500 nM, respectively.

Take `C[C@@H]1CN(c2ncnc3c2c(C2CC2)cn3-c2cc(F)cc(Cl)c2)[C@@H](C)CN1C(=O)OC(C)(C)C` [Compound 236, tert-butyl (2R,5S)-4-(7-(3-chloro-5-fluorophenyl)-5-cyclopropyl-7H-pyrrolo[2,3-d]pyrimidin-4-yl)-2,5-dimethylpiperazine-1-carboxylate]: the EC50 in test [1] (fluorescent calcium assay) was under 100 nM; in test [2] (fluorescent calcium assay) it was 100 to 500 nM; in test [3] (fluorescent calcium assay) it was under 100 nM.

In the case of `C[C@@H]1CN(C(=O)OC(C)(C)C)CCN1c1ncnc2c1c(C1=CCOCC1)cn2-c1cccc(F)c1` [Compound 471, tert-butyl (R)-4-(5-(3,6-dihydro-2H-pyran-4-yl)-7-(3-fluorophenyl)-7H-pyrrolo[2,3-d]pyrimidin-4-yl)-3-methylpiperazine-1-carboxylate], the half-maximal effective concentration (EC50) in test [1] (fluorescent calcium assay) was 500 to 2000 nM; in test [2] (fluorescent calcium assay), 500 to 2000 nM; in test [3] (fluorescent calcium assay), 100 to 500 nM.

Turning to `C[C@H]1CN(C(=O)OC(C)(C)C)CCN1c1ncnc2c1c(C1CC1)cn2-c1cccc(Cl)c1` [Compound 139, tert-butyl (S)-4-(7-(3-chlorophenyl)-5-cyclopropyl-7H-pyrrolo[2,3-d]pyrimidin-4-yl)-3-methylpiperazine-1-carboxylate], the EC50 in test [1] (fluorescent calcium assay), in test [2] (fluorescent calcium assay) and in test [3] (fluorescent calcium assay) was under 100 nM in each case.

In the case of `CCCOc1cn(-c2cc(C#N)ccn2)c2ncnc(N3C[C@@H](C)N(C(=O)OC(C)(C)C)C[C@@H]3C)c12` [Compound 507, tert-butyl (2R,5S)-4-(7-(4-cyanopyridin-2-yl)-5-propoxy-7H-pyrrolo[2,3-d]pyrimidin-4-yl)-2,5-dimethylpiperazine-1-carboxylate], the EC50 in test [1], in test [2] and in test [3] was under 100 nM in each case.

On to `C[C@@H]1CN(c2ncnc3c2c(C2CC2)cn3-c2cccc(F)c2)[C@@H](C)CN1C(=O)OC(C)(C)C` [Compound 657, tert-butyl (2R,5S)-4-(5-cyclopropyl-7-(3-fluorophenyl)-7H-pyrrolo[2,3-d]pyrimidin-4-yl)-2,5-dimethylpiperazine-1-carboxylate], for which the EC50 in test [1], in test [2] and in test [3] was under 100 nM in each case.

Take `Cc1nccnc1-c1cn(-c2cc(F)cc(F)c2)c2ncnc(N3CCN(C(=O)OC(C)(C)C(F)(F)F)C[C@@H]3C)c12` [Compound 247, 1,1,1-trifluoro-2-methylpropan-2-yl (S)-4-(7-(3,5-difluorophenyl)-5-(3-methylpyrazin-2-yl)-7H-pyrrolo[2,3-d]pyrimidin-4-yl)-3-methylpiperazine-1-carboxylate]: the EC50 in test [1] (fluorescent calcium assay) was in the range of 500 to 2000 nM; in test [2] (fluorescent calcium assay), 500 to 2000 nM; in test [3] (fluorescent calcium assay), 100 to 500 nM.

`C[C@H]1CN(c2ncnc3c2c(N2CCCC2)cn3-c2cccc(Cl)c2)CCN1C(=O)OC(C)(C)C` [Compound 194, tert-Butyl (S)-4-(7-(3-chlorophenyl)-5-(pyrrolidin-1-yl)-7H-pyrrolo[2,3-d]pyrimidin-4-yl)-2-methylpiperazine-1-carboxylate]: the EC50 in test [1] (fluorescent calcium assay), in test [2] (fluorescent calcium assay) and in test [3] (fluorescent calcium assay) was 100 to 500 nM in each case.

Turning to `C[C@H]1CN(C(=O)OC(C)(C)C)CCN1c1ncnc2c1c(C1CC1)cn2-c1cc(F)ccc1F` [Compound 218, tert-butyl (S)-4-(5-cyclopropyl-7-(2,5-difluorophenyl)-7H-pyrrolo[2,3-d]pyrimidin-4-yl)-3-methylpiperazine-1-carboxylate], the figures for the EC50 in test [1] (fluorescent calcium assay), in test [2] (fluorescent calcium assay) and in test [3] (fluorescent calcium assay) were under 100 nM, 500 to 2000 nM and under 100 nM, respectively.

As to `C[C@H]1CN(C(=O)OC(C)(C)C)CCN1c1ncnc2c1c(-c1cccnc1)cn2-c1cc(C#N)ccn1` [Compound 353, tert-butyl (S)-4-(7-(4-cyanopyridin-2-yl)-5-(pyridin-3-yl)-7H-pyrrolo[2,3-d]pyrimidin-4-yl)-3-methylpiperazine-1-carboxylate], the EC50 in test [1] (fluorescent calcium assay), in test [2] (fluorescent calcium assay) and in test [3] (fluorescent calcium assay) was under 100 nM throughout.

As for `C[C@@H]1CN(c2ncnc3c2c(C2CC2)cn3-c2ccc(F)c(Cl)c2)CCN1C(=O)OC(C)(C)C` [Compound 208, tert-butyl (R)-4-(7-(3-chloro-4-fluorophenyl)-5-cyclopropyl-7H-pyrrolo[2,3-d]pyrimidin-4-yl)-2-methylpiperazine-1-carboxylate], the EC50 in test [1] (fluorescent calcium assay) was under 100 nM; in test [2] (fluorescent calcium assay), 100 to 500 nM; in test [3] (fluorescent calcium assay), under 100 nM.

For the compound `CC(C)(C)OC(=O)N1CCCN(c2ncnc3c2c(C2CC2)cn3-c2cc(C#N)ccn2)CCC1` [Compound 482, tert-butyl 5-(7-(4-cyanopyridin-2-yl)-5-cyclopropyl-7H-pyrrolo[2,3-d]pyrimidin-4-yl)-1,5-diazocane-1-carboxylate], the EC50 in test [1] (fluorescent calcium assay) is under 100 nM; in test [2] (fluorescent calcium assay), 100 to 500 nM; in test [3] (fluorescent calcium assay) it was under 100 nM.

For `C[C@@H]1CN(c2ncnc3c2c(-c2ccccc2F)cn3-c2ncc(C#N)s2)[C@@H](C)CN1C(=O)OC(C)(C)C` [Compound 434, tert-butyl (2R,5S)-4-(7-(5-cyanothiazol-2-yl)-5-(2-fluorophenyl)-7H-pyrrolo[2,3-d]pyrimidin-4-yl)-2,5-dimethylpiperazine-1-carboxylate], the EC50 in test [1] (fluorescent calcium assay), in test [2] (fluorescent calcium assay) and in test [3] (fluorescent calcium assay) was under 100 nM in each case.

Regarding `COc1ccnc(-n2cc(C3CC3)c3c(N4C[C@@H](C)N(C(=O)OC(C)(C)C)C[C@@H]4C)ncnc32)c1` [Compound 642, tert-butyl (2R,5S)-4-(5-cyclopropyl-7-(4-methoxypyridin-2-yl)-7H-pyrrolo[2,3-d]pyrimidin-4-yl)-2,5-dimethylpiperazine-1-carboxylate], the EC50 in test [1] lay within 100 to 500 nM; in test [2] it was 500 to 2000 nM; in test [3] it was 100 to 500 nM.

`C[C@H]1CN(C(=O)OC(C)(C)C)CCN1c1ncnc2c1c(N(C)C1CC1)cn2-c1cc(C#N)ccn1` [Compound 442, tert-butyl (S)-4-(7-(4-cyanopyridin-2-yl)-5-(cyclopropyl(methyl)amino)-7H-pyrrolo[2,3-d]pyrimidin-4-yl)-3-methylpiperazine-1-carboxylate]: the EC50 in test [1] (fluorescent calcium assay) was under 100 nM; in test [2] (fluorescent calcium assay), 500 to 2000 nM; in test [3] (fluorescent calcium assay), under 100 nM.

Turning to `Cc1cn(-c2cncc(F)c2)c2ncnc(N3CCN(C(=O)OC(C)(C)C)C[C@@H]3C)c12` [Compound 689, tert-butyl (S)-4-(7-(5-fluoropyridin-3-yl)-5-methyl-7H-pyrrolo[2,3-d]pyrimidin-4-yl)-3-methylpiperazine-1-carboxylate], the EC50 is under 100 nM in test [1], 100 to 500 nM in test [2] and 100 to 500 nM in test [3].

Take `C[C@@H]1CN(c2ncnc3c2c(C2CC2)cn3-c2cc(F)cc(F)c2)[C@@H](C)CN1C(=O)OC(C)(C)C` [Compound 232, tert-butyl (2R,5S)-4-(5-cyclopropyl-7-(3,5-difluorophenyl)-7H-pyrrolo[2,3-d]pyrimidin-4-yl)-2,5-dimethylpiperazine-1-carboxylate]: the EC50 in test [1] (fluorescent calcium assay) was under 100 nM; in test [2] (fluorescent calcium assay) it was 500 to 2000 nM; in test [3] (fluorescent calcium assay) it was under 100 nM.

In the case of `C[C@@H]1CN(c2ncnc3c2c(C(F)(F)F)cn3C2CCCCC2)[C@@H](C)CN1C(=O)OC(C)(C)C` [Compound 625, tert-butyl (2R,5S)-4-(7-cyclohexyl-5-(trifluoromethyl)-7H-pyrrolo[2,3-d]pyrimidin-4-yl)-2,5-dimethylpiperazine-1-carboxylate], the EC50 in test [1] is 100 to 500 nM; in test [2], over 2000 nM; in test [3] it was over 2000 nM.
